Legend:
TYK2 = TYK2 (Homo sapiens, UniProt P29597); test: Biochemical potency on Tyk2, TR-FRET LANCE Ultra kinase assay (examples 1-99); details: ATP at Km (12 μM), read-out: Tyk2 inhibitory activity (pIC50 class) (converted)
How it was run: (§1)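 Each JAK isoform (human) was tested separately in a peptide-phosphorylation TR-FRET assay at ATP ≈ Km. Eleven compound concentrations, top 20 μM, 5-fold spacing. Values are IC50s from normalized-response curve fits.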

JAK 1 = JAK 1 (Homo sapiens, UniProt P23458); test: Biochemical potency on JAK1, TR-FRET LANCE Ultra kinase assay (examples 1-99); details: ATP at Km (20 μM), read-out: JAK1 inhibitory activity (pIC50 class) (converted)
How it was run: as §1

JAK 3 = target: T1, JAK 3 (Homo sapiens, UniProt P52333); test: Biochemical potency on JAK3, TR-FRET LANCE Ultra kinase assay (examples 1-99); details: ATP at Km (0.2 μM), read-out: JAK3 inhibitory activity (pIC50 class) (converted)
T1 sequence (P52333 1-1124): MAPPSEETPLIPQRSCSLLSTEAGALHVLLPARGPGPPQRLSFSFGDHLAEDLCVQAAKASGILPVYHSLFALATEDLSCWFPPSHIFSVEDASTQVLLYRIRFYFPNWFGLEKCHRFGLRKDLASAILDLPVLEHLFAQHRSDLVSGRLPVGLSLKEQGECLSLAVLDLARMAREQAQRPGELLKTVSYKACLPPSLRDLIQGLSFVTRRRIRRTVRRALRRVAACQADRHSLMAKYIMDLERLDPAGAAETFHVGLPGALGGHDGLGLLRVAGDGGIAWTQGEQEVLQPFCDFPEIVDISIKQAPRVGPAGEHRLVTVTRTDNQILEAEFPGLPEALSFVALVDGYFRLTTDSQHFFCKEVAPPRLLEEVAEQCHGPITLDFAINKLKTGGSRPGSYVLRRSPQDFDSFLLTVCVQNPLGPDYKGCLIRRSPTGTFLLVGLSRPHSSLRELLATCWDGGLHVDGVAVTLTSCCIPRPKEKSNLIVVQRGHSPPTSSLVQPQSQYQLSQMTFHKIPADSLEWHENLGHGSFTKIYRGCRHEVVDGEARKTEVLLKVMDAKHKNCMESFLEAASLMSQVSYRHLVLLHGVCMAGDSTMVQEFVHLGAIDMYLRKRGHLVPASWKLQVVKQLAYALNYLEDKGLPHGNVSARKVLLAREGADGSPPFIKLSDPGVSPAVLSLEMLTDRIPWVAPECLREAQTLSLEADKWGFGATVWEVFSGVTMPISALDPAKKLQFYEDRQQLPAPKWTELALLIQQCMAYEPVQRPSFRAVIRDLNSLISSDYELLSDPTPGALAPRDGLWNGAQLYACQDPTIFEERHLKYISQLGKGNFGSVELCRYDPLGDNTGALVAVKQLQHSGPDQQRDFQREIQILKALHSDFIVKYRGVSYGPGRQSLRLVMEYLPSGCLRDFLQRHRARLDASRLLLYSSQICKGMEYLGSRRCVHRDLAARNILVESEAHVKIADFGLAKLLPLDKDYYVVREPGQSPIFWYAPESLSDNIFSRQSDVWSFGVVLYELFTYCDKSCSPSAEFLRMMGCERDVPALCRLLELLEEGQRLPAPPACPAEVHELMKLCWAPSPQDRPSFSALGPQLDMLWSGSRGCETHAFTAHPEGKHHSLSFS
How it was run: as §1

JAK 2 = JAK 2 (Homo sapiens, UniProt O60674); test: Biochemical potency on JAK2, TR-FRET LANCE Ultra kinase assay (examples 1-99); details: ATP at Km (0.7 μM), read-out: JAK2 inhibitory activity (pIC50 class) (converted)
How it was run: as §1

Chain of JAK 1 (P23458 whole entry): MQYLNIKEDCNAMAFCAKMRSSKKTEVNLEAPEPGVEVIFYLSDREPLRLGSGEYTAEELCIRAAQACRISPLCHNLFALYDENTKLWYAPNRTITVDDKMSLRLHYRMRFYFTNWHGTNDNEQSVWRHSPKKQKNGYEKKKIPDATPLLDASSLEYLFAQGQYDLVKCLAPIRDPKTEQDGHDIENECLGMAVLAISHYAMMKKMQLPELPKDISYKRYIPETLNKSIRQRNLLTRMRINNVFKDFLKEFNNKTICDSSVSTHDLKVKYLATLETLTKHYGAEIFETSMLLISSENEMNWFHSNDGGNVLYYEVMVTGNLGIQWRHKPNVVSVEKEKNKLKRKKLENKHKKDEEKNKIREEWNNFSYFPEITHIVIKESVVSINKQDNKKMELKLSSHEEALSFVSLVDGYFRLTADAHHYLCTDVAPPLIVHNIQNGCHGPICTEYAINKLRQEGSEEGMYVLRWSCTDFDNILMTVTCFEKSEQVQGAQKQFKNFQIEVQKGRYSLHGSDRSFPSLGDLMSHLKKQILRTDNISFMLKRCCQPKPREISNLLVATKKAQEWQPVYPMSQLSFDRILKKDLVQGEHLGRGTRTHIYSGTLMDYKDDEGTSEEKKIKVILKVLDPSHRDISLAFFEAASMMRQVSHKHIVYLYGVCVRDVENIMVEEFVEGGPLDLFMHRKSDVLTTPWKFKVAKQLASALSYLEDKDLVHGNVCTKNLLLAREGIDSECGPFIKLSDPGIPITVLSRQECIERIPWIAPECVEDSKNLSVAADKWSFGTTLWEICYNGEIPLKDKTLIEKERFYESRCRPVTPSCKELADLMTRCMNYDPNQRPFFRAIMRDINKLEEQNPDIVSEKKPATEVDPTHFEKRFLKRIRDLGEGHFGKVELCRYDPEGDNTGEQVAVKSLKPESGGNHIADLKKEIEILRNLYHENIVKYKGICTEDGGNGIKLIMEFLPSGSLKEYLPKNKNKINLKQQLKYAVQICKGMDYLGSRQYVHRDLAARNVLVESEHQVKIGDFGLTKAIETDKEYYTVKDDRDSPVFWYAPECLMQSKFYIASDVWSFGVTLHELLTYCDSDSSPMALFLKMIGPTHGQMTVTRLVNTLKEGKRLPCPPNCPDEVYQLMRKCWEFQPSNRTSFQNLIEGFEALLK
Chain of JAK 2 (O60674 whole entry): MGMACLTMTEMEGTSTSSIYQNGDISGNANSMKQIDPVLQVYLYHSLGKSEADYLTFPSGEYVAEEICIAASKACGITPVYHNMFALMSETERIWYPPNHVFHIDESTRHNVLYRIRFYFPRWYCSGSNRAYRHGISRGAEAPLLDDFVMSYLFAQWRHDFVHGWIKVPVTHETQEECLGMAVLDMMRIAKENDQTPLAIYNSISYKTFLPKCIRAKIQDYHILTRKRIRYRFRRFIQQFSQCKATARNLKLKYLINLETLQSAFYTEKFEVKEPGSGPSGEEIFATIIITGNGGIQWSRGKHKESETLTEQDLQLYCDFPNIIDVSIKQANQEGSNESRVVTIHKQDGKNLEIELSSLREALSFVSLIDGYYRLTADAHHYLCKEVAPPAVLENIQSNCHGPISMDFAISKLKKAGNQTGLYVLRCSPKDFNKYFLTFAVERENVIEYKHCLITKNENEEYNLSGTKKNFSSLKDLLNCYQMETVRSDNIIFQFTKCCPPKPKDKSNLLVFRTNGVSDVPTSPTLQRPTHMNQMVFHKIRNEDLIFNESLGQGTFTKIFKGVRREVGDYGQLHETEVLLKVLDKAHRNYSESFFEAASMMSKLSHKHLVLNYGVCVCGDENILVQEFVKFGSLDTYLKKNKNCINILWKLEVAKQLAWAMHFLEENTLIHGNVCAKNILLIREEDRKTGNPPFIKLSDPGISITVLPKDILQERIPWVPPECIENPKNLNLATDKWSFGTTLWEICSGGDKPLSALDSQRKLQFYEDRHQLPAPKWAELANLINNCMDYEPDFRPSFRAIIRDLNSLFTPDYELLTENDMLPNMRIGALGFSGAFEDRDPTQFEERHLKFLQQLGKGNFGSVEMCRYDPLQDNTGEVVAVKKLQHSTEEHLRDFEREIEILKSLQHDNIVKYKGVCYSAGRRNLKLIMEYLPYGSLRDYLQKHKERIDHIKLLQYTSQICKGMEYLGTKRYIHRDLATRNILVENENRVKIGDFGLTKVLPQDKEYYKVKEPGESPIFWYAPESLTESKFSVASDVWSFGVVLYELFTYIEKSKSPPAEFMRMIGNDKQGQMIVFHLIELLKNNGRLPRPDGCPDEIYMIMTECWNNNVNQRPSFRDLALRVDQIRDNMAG
Chain of TYK2 (P29597 whole entry, canonical isoform): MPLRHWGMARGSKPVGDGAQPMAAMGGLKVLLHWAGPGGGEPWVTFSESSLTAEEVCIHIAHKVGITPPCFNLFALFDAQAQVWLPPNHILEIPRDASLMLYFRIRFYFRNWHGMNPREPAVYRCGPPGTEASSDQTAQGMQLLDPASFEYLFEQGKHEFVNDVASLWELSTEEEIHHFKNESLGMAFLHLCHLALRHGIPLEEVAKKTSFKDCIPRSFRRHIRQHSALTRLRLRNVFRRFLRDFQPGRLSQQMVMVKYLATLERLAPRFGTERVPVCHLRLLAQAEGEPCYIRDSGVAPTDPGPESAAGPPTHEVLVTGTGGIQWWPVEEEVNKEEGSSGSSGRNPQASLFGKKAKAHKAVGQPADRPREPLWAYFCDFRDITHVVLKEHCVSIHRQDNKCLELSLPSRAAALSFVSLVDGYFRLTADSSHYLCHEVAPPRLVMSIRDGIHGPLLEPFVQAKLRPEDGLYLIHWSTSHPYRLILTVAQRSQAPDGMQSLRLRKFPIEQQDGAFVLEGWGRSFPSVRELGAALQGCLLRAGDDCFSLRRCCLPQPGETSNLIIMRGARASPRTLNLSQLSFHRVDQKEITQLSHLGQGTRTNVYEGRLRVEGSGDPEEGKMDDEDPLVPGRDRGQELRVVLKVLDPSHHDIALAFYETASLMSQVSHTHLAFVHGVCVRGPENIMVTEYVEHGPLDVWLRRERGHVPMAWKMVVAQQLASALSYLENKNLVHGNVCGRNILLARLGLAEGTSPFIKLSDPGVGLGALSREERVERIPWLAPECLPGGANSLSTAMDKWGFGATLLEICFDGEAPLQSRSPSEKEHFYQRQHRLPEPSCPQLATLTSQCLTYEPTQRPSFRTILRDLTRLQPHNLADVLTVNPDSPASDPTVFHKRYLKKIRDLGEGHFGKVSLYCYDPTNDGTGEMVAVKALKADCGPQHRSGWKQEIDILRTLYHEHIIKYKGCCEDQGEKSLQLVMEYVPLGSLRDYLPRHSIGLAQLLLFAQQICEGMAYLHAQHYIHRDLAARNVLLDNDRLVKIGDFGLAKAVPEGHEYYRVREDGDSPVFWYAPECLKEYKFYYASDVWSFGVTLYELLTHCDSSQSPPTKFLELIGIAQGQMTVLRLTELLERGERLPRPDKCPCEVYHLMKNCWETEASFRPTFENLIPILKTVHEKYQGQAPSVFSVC

Row | SMILES | IC50 (TYK2) [nM] | IC50 (JAK 1) [nM] | IC50 (JAK 3) [nM] | IC50 (JAK 2) [nM]
1 | COc1ccc(Cl)cc1-n1ncc2c(N(C)C)nc(-c3cnn4cccnc34)cc21 [Example 51, 1-(5-chloro-2-methoxyphenyl)-N,N-dimethyl-6-(pyrazolo[1,5-a]pyrimidin-3-yl)-1H-pyrazolo[4,3-c]pyridin-4-amine] | > 50.1 | 5.01 to 50.1 | 5.01 to 50.1 | 5.01 to 50.1
2 | Cc1nn(-c2cc(S(=O)(=O)CCO)ccc2OC(F)F)c2cc(-c3cnn4cccnc34)ncc12 [Example 22, 2-((4-(difluoromethoxy)-3-(3-methyl-6-(pyrazolo[1,5-a]pyrimidin-3-yl)-1H-pyrazolo[4,3-c]pyridin-1-yl)phenyl)sulfonyl)ethan-1-ol] | 5.01 to 50.1 | 5.01 to 50.1 | ≤ 5.01 | ≤ 5.01
3 | CNc1nn(-c2cc(Cl)ccc2OC)c2cc(-c3cnn4cccnc34)ncc12 [Example 41, 1-(5-chloro-2-methoxyphenyl)-N-methyl-6-(pyrazolo[1,5-a]pyrimidin-3-yl)-1H-pyrazolo[4,3-c]pyridin-3-amine] | 5.01 to 50.1 | ≤ 5.01 | ≤ 5.01 | ≤ 5.01
4 | COc1ccc(Cl)cc1-n1ncc2c(NCCNC(C)=O)nc(-c3cnn4cccnc34)cc21 [Example 53, N-(2-((1-(5-chloro-2-methoxyphenyl)-6-(pyrazolo[1,5-a]pyrimidin-3-yl)-1H-pyrazolo[4,3-c]pyridin-4-yl)amino)ethyl)acetamide] | > 50.1 | 5.01 to 50.1 | > 50.1 | > 50.1
5 | Cc1nn(-c2cc(Cl)ccc2OC2CC2)c2cc(-c3cnn4cccnc34)ncc12 [Example 7, 1-(5-chloro-2-cyclopropoxyphenyl)-3-methyl-6-(pyrazolo[1,5-a]pyrimidin-3-yl)-1H-pyrazolo[4,3-c]pyridine] | 5.01 to 50.1 | 5.01 to 50.1 | ≤ 5.01 | ≤ 5.01
6 | COc1ccc(S(=O)(=O)NCCN2CCN(C)CC2)cc1-n1nc(C)c2cnc(-c3cnn4cccnc34)cc21 [Example 18, 4-methoxy-3-(3-methyl-6-(pyrazolo[1,5-a]pyrimidin-3-yl)-1H-pyrazolo[4,3-c]pyridin-1-yl)-N-(2-(4-methylpiperazin-1-yl)ethyl)benzenesulfonamide] | > 50.1 | 5.01 to 50.1 | > 50.1 | 5.01 to 50.1
7 | COc1ccc(Cl)cc1-n1ncc2c(NC(C)=O)nc(-c3cnn4cccnc34)cc21 [Example 55, N-(1-(5-chloro-2-methoxyphenyl)-6-(pyrazolo[1,5-a]pyrimidin-3-yl)-1H-pyrazolo[4,3-c]pyridin-4-yl)acetamide] | > 50.1 | 5.01 to 50.1 | > 50.1 | 5.01 to 50.1
8 | COc1ccc(Cl)cc1-n1nc(N2CC(CO)C2)c2cnc(-c3cnn4cccnc34)cc21 [Example 49, (1-(1-(5-chloro-2-methoxyphenyl)-6-(pyrazolo[1,5-a]pyrimidin-3-yl)-1H-pyrazolo[4,3-c]pyridin-3-yl)azetidin-3-yl)methanol] | 5.01 to 50.1 | 5.01 to 50.1 | 5.01 to 50.1 | 5.01 to 50.1
9 | CSc1ccc(OC(F)F)c(-n2nc(C)c3cnc(-c4cnn5cccnc45)cc32)c1 [Example 13, 1-(2-(difluoromethoxy)-5-(methylthio)phenyl)-3-methyl-6-(pyrazolo[1,5-a]pyrimidin-3-yl)-1H-pyrazolo[4,3-c]pyridine] | 5.01 to 50.1 | ≤ 5.01 | ≤ 5.01 | ≤ 5.01

The remaining lines, values ahead:

Row | IC50 (TYK2) [nM] | IC50 (JAK 1) [nM] | IC50 (JAK 3) [nM] | IC50 (JAK 2) [nM] | SMILES
10 | > 50.1 | 5.01 to 50.1 | 5.01 to 50.1 | > 50.1 | N[C@H]1C[C@@H](NC(=O)c2nn(-c3cc(Cl)ccc3OC(F)F)c3cc(-c4cnn5cccnc45)ncc23)C1 [Example 81, N-((1s,3s)-3-aminocyclobutyl)-1-(5-chloro-2-(difluoromethoxy)phenyl)-6-(pyrazolo[1,5-a]pyrimidin-3-yl)-1H-pyrazolo[4,3-c]pyridine-3-carboxamide]
11 | > 50.1 | 5.01 to 50.1 | ≤ 5.01 | ≤ 5.01 | Cc1nn(-c2cc(S(=O)(=O)CC(N)=O)ccc2OC(F)F)c2cc(-c3cnn4cccnc34)ncc12 [Example 70, 2-((4-(difluoromethoxy)-3-(3-methyl-6-(pyrazolo[1,5-a]pyrimidin-3-yl)-1H-pyrazolo[4,3-c]pyridin-1-yl)phenyl)sulfonyl)acetamide]
12 | 5.01 to 50.1 | 5.01 to 50.1 | 5.01 to 50.1 | 5.01 to 50.1 | COc1ccc(C(F)F)cc1-n1nc(NCCN(C)C)c2cnc(Nc3ncc[nH]c3=O)cc21 [Example 98, 3-((1-(5-(difluoromethyl)-2-methoxyphenyl)-3-((2-(dimethylamino)ethyl)amino)-1H-pyrazolo[4,3-c]pyridin-6-yl)amino)pyrazin-2(1H)-one]
13 | > 50.1 | 5.01 to 50.1 | 5.01 to 50.1 | 5.01 to 50.1 | CNC(=O)CN(C)[C@H]1C[C@H](NC(=O)c2nn(-c3cc(Cl)ccc3OC)c3cc(-c4cnn5cccnc45)ncc23)C1 [Example 78, 1-(5-chloro-2-methoxyphenyl)-N-((1r,3r)-3-(methyl(2-(methylamino)-2-oxoethyl)amino)cyclobutyl)-6-(pyrazolo[1,5-a]pyrimidin-3-yl)-1H-pyrazolo[4,3-c]pyridine-3-carboxamide]
14 | > 50.1 | > 50.1 | 5.01 to 50.1 | ≤ 5.01 | CNc1nn(-c2cc(S(C)(=O)=O)ccc2OC)c2cc(-c3cnn4cccnc34)ncc12 [Example 85, 1-(2-methoxy-5-(methylsulfonyl)phenyl)-N-methyl-6-(pyrazolo[1,5-a]pyrimidin-3-yl)-1H-pyrazolo[4,3-c]pyridin-3-amine]
15 | 5.01 to 50.1 | 5.01 to 50.1 | ≤ 5.01 | ≤ 5.01 | COc1ccc(C(F)F)cc1-n1nc(C)c2cnc(Nc3ncc[nH]c3=O)cc21 [Example 91, 3-((1-(5-(difluoromethyl)-2-methoxyphenyl)-3-methyl-1H-pyrazolo[4,3-c]pyridin-6-yl)amino)pyrazin-2(1H)-one]
16 | 5.01 to 50.1 | ≤ 5.01 | ≤ 5.01 | ≤ 5.01 | COc1cc(O)c(F)cc1-n1nc(C)c2cnc(-c3cnn4cccnc34)cc21 [Example 58, 2-fluoro-5-methoxy-4-(3-methyl-6-(pyrazolo[1,5-a]pyrimidin-3-yl)-1H-pyrazolo[4,3-c]pyridin-1-yl)phenol]
17 | > 50.1 | 5.01 to 50.1 | 5.01 to 50.1 | 5.01 to 50.1 | COc1ccc(Cl)cc1-n1nc(C(=O)N[C@H]2C[C@H](N3CCOCC3)C2)c2cnc(-c3cnn4cccnc34)cc21 [Example 79, 1-(5-chloro-2-methoxyphenyl)-N-((1r,3r)-3-morpholinocyclobutyl)-6-(pyrazolo[1,5-a]pyrimidin-3-yl)-1H-pyrazolo[4,3-c]pyridine-3-carboxamide]
18 | > 50.1 | 5.01 to 50.1 | 5.01 to 50.1 | 5.01 to 50.1 | CNC(=O)CSc1ccc(OC(F)F)c(-n2nc(C)c3cnc(-c4cnn5cccnc45)cc32)c1 [Example 67, 2-((4-(difluoromethoxy)-3-(3-methyl-6-(pyrazolo[1,5-a]pyrimidin-3-yl)-1H-pyrazolo[4,3-c]pyridin-1-yl)phenyl)thio)-N-methylacetamide]
19 | 5.01 to 50.1 | ≤ 5.01 | ≤ 5.01 | ≤ 5.01 | COc1cc(O)c(Cl)cc1-n1nc(C)c2cnc(-c3cnn4cccnc34)cc21 [Example 59, 2-chloro-5-methoxy-4-(3-methyl-6-(pyrazolo[1,5-a]pyrimidin-3-yl)-1H-pyrazolo[4,3-c]pyridin-1-yl)phenol]
